Laboratory results: publication PMC12084297, “Cytoplasmic connexin43-microtubule interactions promote glioblastoma stem-like cell maintenance and tumorigenicity” (Cell Death & Disease, 2025)

Assays:
α-tubulin = test: Co-immunoprecipitation with α-tubulin antibody: peptide interaction with α-tubulin; format: binding, human; details: VTC-037 GSCs, 50 μM, 24 h, cross-linked (DTBP); compared to antennapedia alone or JM2-scrambled; NeutrAvidin-HRP detection
Description: (§1) Prior to lysis, cross-linking was completed by incubating cells in DTBP (dimethyl 3,3’-dithiobispropionimidate; 2 mM in PBS) for 30 min at 37 °C followed by a glycine quench (100 mM glycine in PBS) for 15 min at room temperature. Cross-linked samples were lysed in RIPA buffer supplemented with Halt^TM Protease and Phosphatase Inhibitor Cocktail as described above, but without sonication. Co-immunoprecipitation (co-IP) assays were also performed without cross-linking; non-cross-linked samples were lysed using a co-IP lysis buffer (0.5% Triton X-100, 50 mM Tris HCl, 150 mM NaCl, 1 mM EDTA, 1 mM EGTA, 1 mM DTT, 0.1 mM Na3VO4, and 1 mM NaF) supplemented with Halt^TM Protease and Phosphatase Inhibitor Cocktail, without sonication. Protein concentration was quantified using the DC protein assay and a standard curve obtained with increasing concentrations of BSA, and 500 μg of total protein was used per reaction for co-IP. Inputs were removed prior to co-IP and denatured in Bolt LDS sample buffer as described above. Remaining protein lysates were incubated with Protein G Sepharose^TM 4 Fast Flow beads (GE Healthcare) for pre-clearance for 30 min at 4 °C. Samples were incubated with 2 μg of mouse anti-α-tubulin (MilliporeSigma, T6199) for cross-linked samples or mouse anti-Cx43 antibody (EMD Millipore; MAB3067) for non-cross-linked samples for 90 min at 4 °C. […]

[1] = test system: Cx43/α-tubulin interaction; test: Co-immunoprecipitation with α-tubulin antibody: Cx43 interaction with α-tubulin; format: cell-based, human; details: VTC-037 GSCs, 50 μM, 24 h, cross-linked (DTBP)
Description: as §1

normal human astrocytes = test: Caspase 3/7 activity, human astrocytes; format: cell-based; details: 100 μM, 2 days
Description: Cells were plated in 96-well plates (2000–5000 cells per well) and treated the following day with TMZ (10, 50, or 100 μM), antennapedia, JM2-scrambled, or JM2 (10, 50, or 100 μM). After 4 days, cell viability was monitored following addition of MTS reagent (Promega) according to manufacturer’s instructions. The absorbance at 490 nm was measured using a SpectraMax i3 or iD3 microplate reader (Molecular Devices). For the caspase 3/7 activity assay, cells were plated in 96-well plates (2000 cells per well) and treated with TMZ or peptides as described above. The activity of caspase 3/7 was measured after 48 h using the Caspase-Glo® 3/7 assay (Promega) following the manufacturer’s instructions. Fold change of caspase 3/7 activity was defined as the ratio of caspase 3/7 luminescence in treated cells compared to controls.

VTC-001 GSCs = test: Gliosphere formation assay, VTC-001 GSCs; format: cell-based, human; details: VTC-001, 10, 50 or 100 μM every other day, 2 weeks
Description: GSCs and PDX GBM22 cells were plated as single cell suspension in low-attachment 96-well plates (GSCs: 100–500 cells per well; GBM22 cells: 500–2000 cells per well), using methods similar to those reported previously. Cells were then treated with peptides every other day. 2 weeks later, gliospheres were observed using phase contrast microscopy on a Revolve microscope (Echo Laboratories). The number of gliospheres was then determined, while the gliosphere size was assessed by diameter measurement. To evaluate stem cell frequency in GSCs, gliosphere formation assay was performed with limiting cell dilutions with cells plated at varying densities in low-attachment 96-well plates. Cells were treated with peptides every other day, and after 2 weeks, gliosphere-positive wells were observed and scored using phase contrast microscopy on a Revolve microscope. The stem cell frequency was analyzed using the online data analysis program ELDA (Extreme Limiting Dilution Analysis).

VFFKGVKDRVKGRSD [JM2]
Interaction of peptide with α-tubulin (co-IP) (α-tubulin): robustly interacted with α-tubulin
Cx43 interaction with α-tubulin (co-IP) [1]: decrease in Cx43 interaction with α-tubulin
Caspase 3/7 activity in normal human astrocytes (normal human astrocytes): No effect on caspase 3/7
GSC-dependent gliosphere formation (VTC-001 GSCs): inhibits VTC-001, VTC-034, and VTC-037 GSC-dependent gliosphere formation in a dose-dependent manner
Gliosphere size (diameter) (VTC-001 GSCs; n = 4): significant decrease in gliosphere size
Gliosphere number (VTC-001 GSCs; n = 6): significant decrease in gliosphere size as assessed by diameter measurement (Fig. 6B), and number
